Measured values as given in US10409869B2, “(R)- and (S)-1-(3-(3-N,N-dimethylaminocarbonyl)phenoxyl-4-nitrophenyl)-1-ethyl-N,N'-bis (ethylene)phosphoramidate, compositions and methods for their use and preparation” (OBI Pharma, Inc., priority 2015, dated 2019).
One block for each compound: values may come before it.

Experiments:
AKR1C3 [1] = target: T1, AKR1C3 (Homo sapiens, UniProt P42330); assay: Activation by the aldoketo reductase AKR1C3, LC/MS/MS of % remaining; format: biochemical; settings: 5 μM, 25 μg/mL AKR1C3, 2 mM NADPH, 37° C., up to 120 min, FIG. 2
T1 sequence (P42330 1-323): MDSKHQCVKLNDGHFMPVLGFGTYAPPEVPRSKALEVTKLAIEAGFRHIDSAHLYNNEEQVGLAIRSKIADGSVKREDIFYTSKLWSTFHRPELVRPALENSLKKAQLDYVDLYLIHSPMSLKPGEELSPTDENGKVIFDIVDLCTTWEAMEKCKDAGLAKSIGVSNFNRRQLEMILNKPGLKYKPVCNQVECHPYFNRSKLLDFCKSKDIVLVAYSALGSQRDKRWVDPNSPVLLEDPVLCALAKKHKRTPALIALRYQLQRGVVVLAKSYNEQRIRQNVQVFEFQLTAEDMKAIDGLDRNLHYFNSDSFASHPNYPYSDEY
Procedure: Recombinant human AKR1C3 was diluted to 25 μg/mL in phosphate buffered saline (PBS), pH 7.4 (37° C.), containing 2 mM NADPH. TH2870 or progesterone (positive control) in 30% methanol/70% water was added to the reaction mixture at a final concentration of 5 μM and incubated at 37° C. for 120 minutes. At various times up to 120 min, 50 μL of the reaction mixture was taken and 200 μL acetonitrile containing propranolol as internal standard was added, vortex-mixed and centrifuged for 10 min. The resulting supernatant (5 μL) was injected into a LC/MS/MS for quantitation of % remaining TH 2870 and progesterone. The compounds were tested in duplicates.

AKR1C3 [2] = target: T1, AKR1C3; settings: cited from earlier work
[3] = human, in vivo; cited from earlier work
[4] = tested on: HepG2-GFP human hepatocellular carcinoma; assay: Orthotopic HepG2-GFP human hepatocellular carcinoma mouse model, tumor burden; format: in vivo, nude mice
Procedure: Female athymic nude mice (6 weeks of age) were used in this study. The animals were purchased from Beijing HFK Bioscience, Co., Ltd and maintained in a High Efficiency Particulate Air Filter (HEPA) filtered environment with cages, food, and bedding sterilized by irradiation or autoclaving. A total of 32 nude mice were used for the study. HepG2-GFP human hepatocellular carcinoma cells (AntiCancer, Inc., San Diego, Calif.) were incubated with RPMI-1640 (Gibco-BRL, Life Technologies, Inc.), which contained 10% FBS. Cells were grown in a CO2 Water Jacketed Incubator (Forma Scientific) maintaining 37° C. and a 5% CO2/95% air atmosphere. Cell viability was determined by trypan blue exclusion analysis. Five female athymic nude mice were injected subcutaneously with a single dose of 5×10^6 HepG2-GFP cells. Tumors were harvested when their size reached 1 cm^3 and the tumor tissues were then cut into small fragments of 1 mm^3. Forty female nude mice were implanted orthotopically with a single piece of tumor fragment, which was derived from a subcutaneous tumor model of HepG2-GFP human hepatocellular carcinoma. The tumor tissue was orthotopically implanted in the right lobe of the liver in each mouse by SOI (Surgical Orthotopic Implantation). […]
During the period of the study, all of the experimental mice were checked daily for mortality or signs of morbidity. […] The body weights of the mice were measured twice weekly during the study period. […] Comparisons of body weights and tumor burdens in different groups were analyzed using the Student's t-test with an α=0.05 (two-sided). […]
The progressions of orthotopic HepG2-GFP hepatocellular carcinoma in different groups were monitored by real time imaging. […] Typical tumor images at the end of the study in each group and tumor growth curves derived from the signals of tumor fluorescence, which were analyzed using the Power Station software (INDEC Biosystems, CA, USA), are shown in FIG. 6 and FIG. 7, respectively
Tumor IR was calculated based on the final average tumor weights according to the formula: IR (%)=(1−treatment(t)/control(c))×100

[5] = Body weight and toxicity in the orthotopic HepG2-GFP mouse model; format: in vivo, nude mice; settings: 30 mg/kg, Qdx35, gavage

disappearance (% remaining) in the presence of AKR1C3 (AKR1C3 [1]): reduced slowly
SMILES: CC(=O)[C@H]1CC[C@H]2[C@@H]3CCC4=CC(=O)CC[C@]4(C)[C@H]3CC[C@]12C [Progesterone, reference compound]

SMILES: CS(=O)(=O)OCCN(CCBr)c1c(C(=O)NCCOP(=O)(O)O)cc([N+](=O)[O-])cc1[N+](=O)[O-] [PR 104]
substrate for AKR1C3 (AKR1C3 [2]): weak substrate
efficacy in clinical trials [3]: ineffective

SMILES: CNC(=O)c1cc(Oc2ccc(NC(=O)Nc3ccc(Cl)c(C(F)(F)F)c3)cc2)ccn1 [Sorafenib, sorafenib]
average tumor size, % less than in the negative control group ([4]; 30 mg/kg, Qdx35, gavage, P=0.0577): about 39%
inhibitory effect on orthotopic HepG2-GFP model ([4]; at tested dosages): had inhibitory effect
Body Weight Growth Rate [5]: 21%
Day 0, Body Weight (mean ± sd) [5]: 15.1 ± 1.1 g
Day 35, Body Weight (mean ± sd) [5]: 18.2 ± 0.8 g
toxicity to the experimental mice ([5]; body weight lower than negative control): a certain degree of toxicity

disappearance (% remaining) in the presence of AKR1C3 (AKR1C3 [1]): rapid disappearance
SMILES: CC(OP(=O)(N1CC1)N1CC1)c1ccc([N+](=O)[O-])c(Oc2cccc(C(=O)N(C)C)c2)c1 (racemic) [TH 2870, (R,S)-1-(3-(3-N,N-dimethylaminocarbonyl)phenoxyl-4-nitrophenyl)-1-ethyl-N,N′-bis(ethylene)phosphoramidate]
